Measured values published in article PMC11807808, “In vitro gastrointestinal digestion simulation screening of novel ACEI peptides from broccoli: mechanism in high glucose-induced VSMCs dysfunction” (Frontiers in Nutrition, 2025).
Entries after “also recorded” stand apart in the source; their conditions may differ. Where no end group is shown, it is not given here.

Legend:
[1] = biological target: T1, Angiotensin converting enzyme (ACE) (Homo sapiens, UniProt P12821); assay: ACE inhibitory (ACEI) activity, HHL substrate, HPLC detection of hippuric acid; type: biochemical; conditions: synthetic peptides; HHL 5 mM, ACE 0.025 U/mL, 37°C 60 min, HPLC 228 nm
T1 construct: purchased Sigma–Aldrich (Shanghai) Trading Co., Ltd
Method: Eighty microlitres of HHL solution (5 mM) and 30 μL of sample mixture were incubated at 37°C for 5 min. Then, 40 μL of ACE solution (0.025 U/mL) was added to the mixture, followed by incubation at 37°C for 60 min. The reaction was terminated by adding 120 μL of 1 M HCl. After the addition of 700 μL of pure water, the mixture was filtered through a 0.22 μm membrane ([25]). The experiment included four groups: a control group (pure water), a negative control group (blank digestion solution), a positive control group (protein mixture), and a sample group (protein digestion solution). In the control group, HCl was added immediately after ACE.
Chromatograms were recorded via an Agilent instrument (Agilent, California, USA). Column: CAPCELL CORE AQ C18, 4.6 × 150 mm, 5 μm (Shiseido, Tokyo, Japan). Column temperature: 30°C. Flow rate: 1 mL/min. The injection volume was 100 μL. Mobile phase: 0.1% trifluoroacetic acid aqueous solution (A) and pure acetonitrile (B). Detection wavelength: 228 nm. Elution gradient: 0–10 min, 80% A/20% B. The calculation method was as follows:
Inhibitionrate(%)=[PA]c-[PA]s/[PA]c-[PA]b×100%
where [PA]c, [PA]s, and [PA]b represented the peak area of HA at 228 nm of the control group, experimental group, and blank group, respectively.

[2] = In vitro simulated gastrointestinal digestion (pepsin, trypsin): digestibility / digestion stability; type: in vitro ADME; conditions: stability under digestion conditions in vitro; pepsin pH 2.0 37°C 2 h, then trypsin pH 8.0 37°C 2 h as described for the hydrolysate; mean ± spread
Method: In vitro digestion simulation was performed based on the method of Hao et al. ([24]). Broccoli protein suspension (5%, w/v) was hydrolyzed with papain (1%, E/S ratio) for 6 h (pH 7.0, 55°C). After hydrolysis, inactivated at 100°C for 10 min and cooled to 25°C. Based on the method of Hao et al. ([24]), the simulated digestion of broccoli papain hydrolysate was conducted. In short, 0.1 g pepsin (pH = 2.0) was mixed with the hydrolysate and placed at 37°C for 2 h. Then 0.2 g trypsin (pH = 8.0) was added and incubated at 37°C for 2 h. After enzymatic hydrolysis, the enzyme was inactivated at 95°C for 10 min, cooled to 25°C, and the supernatant was collected. Subsequently, freeze-dried broccoli crude peptide was applied to the determination of ACEI activity.
The crude protein hydrolysis of broccoli was analyzed by high performance liquid chromatography (Agilent 1260, California, USA). The Column was XBridge Peptides BEH C18 Column 130A, 4.6 × 250 mm, 5 μm (Waters, Massachusetts, USA). Column temperature: 37°C. Flow rate: 1 mL/min. Sample size: 100 μL. Mobile phase: 0.1% trifluoroacetic acid aqueous solution (phase A) and pure acetonitrile (phase B). Detection wavelengths: 214 and 280 nm. Elution gradient: 0–5 min, 100%A/0%B; 5–25 min, 60%A/40%B; 25–26 min, 20%A/80%B; 26–31 min, 20%A/80%B; 31–32 min, 100%A/0%B; 32–37 min, 100%A/0%B.

VSMCs [3] = assay: CCK-8 cell viability of VSMCs in high glucose; type: cell-based, Sprague–Dawley rats; conditions: high glucose (HG); for VSMC proliferation / viability: peptides 0.0313-0.5 mg/mL
Method: (§1) Thoracic aortas from male Sprague–Dawley rats (250–300 g) were dispersed in HBSS solution, which contained 1 mg/mL collagenase II (146 U/mg, Worthington Biochemical Corp., Freehold, NJ) and 0.5 mg/mL elastase I (32 U/mg, Worthington Biochemical Corp., Freehold, NJ). The mixture was digested for 90 min to obtain the appropriate VSMCs. The obtained VSMCs were subsequently cultured in DMEM supplemented with 10% FBS, 2 mmol/L glutamine, and 1 g/L D-glucose at 37°C in a humidified atmosphere of 5% CO2. The purity of the VSMCs was evaluated by the smooth muscle cell-specific marker SM22α (>97% for the stained cells). All the VSMCs used for the experiments were between the 3rd and 8th passages.
The cells (4 × 10^3 cells/well) were seeded into 96-well plates and cultured overnight. The cells were subjected to serum deprivation for 24 h. Then, the culture mixture was removed, and 100 μL of free FBS culture mixture was added to the above culture mixture. Ten microliters of CCK-8 solution was added to each well. The plates were read with a BioTek Epoch 2 Microplate Spectrophotometer (Agilent Technologies, California, USA). The experiment was organized into seven groups, which included a normal group, a high glucose group, and peptide segments: HLEVR, LTEVR, LEHGF, HLVNK, and LLDGR. These segments were tested at concentrations of 0.0313, 0.0625, 0.125, 0.25, and 0.5 mg/mL.

Ang II = Ang II level in VSMCs cultured in high glucose (ELISA); type: cell-based, Sprague–Dawley rats; conditions: high glucose (HG) + peptide
Method: as §1
The cells (2 × 10^4 cells per well) were first seeded into 24-well plates overnight. The supernatants were collected to measure the expression levels of Ang II via angiotensin II ELISA kits (ER1637, FineTest, Wuhan, China) according to the manufacturer's protocol. The absorbance of each well at 450 nm was determined via a multimode plate reader (BioTek Epoch2, Santa Clara, US).

VSMCs [4] = assay: Western blot of protein expression in VSMCs (Ang II-induced or high glucose); type: cell-based, Sprague–Dawley rats; conditions: for ACE expression / expression of PCNA, MMP2, Bcl2 and Bax: VSMCs in high glucose (HG) + peptide
Method: as §1
Protein was extracted with RIPA buffer. Equal amounts of protein were separated via 8–10% SDS–PAGE (ACE, Changzhou, China) and then transferred to 0.22 μm PVDF membranes (Millipore, Bedford, MA, USA). The membranes were blocked with 5% skim milk and incubated overnight with the appropriate primary antibodies. HRP-conjugated secondary antibodies were then applied for binding and visualization through Western blot luminol reagent. Densitometry quantification was performed with ImageJ-V1.8.0.

Caco-2 cells = assay: Caco-2 cell monolayer transport model (absorption simulation); type: in vitro ADME; conditions: Caco-2 monolayer integrity marker, 12-well inserts, TEER 468.09 ± 37.54 Ω/cm^2
Method: Caco-2 cells were obtained from the Cell Bank of the Chinese Academy of Sciences. The cells were cultured in Dulbecco's modified Eagle's medium (DMEM) supplemented with 20% FBS and 1% penicillin/streptomycin (P/S) at 37°C and 5% CO2 in a humidified incubator.
Caco-2 cells were seeded in each chamber of a 12-well plate, which was equipped with cell culture inserts ([26]). The transepithelial electrical resistance (TEER) across the monolayer was measured every 2 days via a cell resistance meter (RE1600, Beijing Jegon Instrumentation Co., Ltd.). The integrity of the cell monolayer was assessed with fluorescein isothiocyanate (FITC). TEER values > 350 Ω/cm^2 were considered to indicate successful construction and validation of the Caco-2 cell transport model. The FITC permeability was < 5 × 10^−[…], indicating the integrity of the cell monolayer.
Broccoli protease hydrolysate was added to the apical (AP) side. After 120 min, the media from both the AP and basolateral (BL) sides were collected for subsequent analysis. The wells without cells or samples served as the control group, whereas the wells without samples served as the blank group.

T1 sequence (P12821 30-1306, species assumed): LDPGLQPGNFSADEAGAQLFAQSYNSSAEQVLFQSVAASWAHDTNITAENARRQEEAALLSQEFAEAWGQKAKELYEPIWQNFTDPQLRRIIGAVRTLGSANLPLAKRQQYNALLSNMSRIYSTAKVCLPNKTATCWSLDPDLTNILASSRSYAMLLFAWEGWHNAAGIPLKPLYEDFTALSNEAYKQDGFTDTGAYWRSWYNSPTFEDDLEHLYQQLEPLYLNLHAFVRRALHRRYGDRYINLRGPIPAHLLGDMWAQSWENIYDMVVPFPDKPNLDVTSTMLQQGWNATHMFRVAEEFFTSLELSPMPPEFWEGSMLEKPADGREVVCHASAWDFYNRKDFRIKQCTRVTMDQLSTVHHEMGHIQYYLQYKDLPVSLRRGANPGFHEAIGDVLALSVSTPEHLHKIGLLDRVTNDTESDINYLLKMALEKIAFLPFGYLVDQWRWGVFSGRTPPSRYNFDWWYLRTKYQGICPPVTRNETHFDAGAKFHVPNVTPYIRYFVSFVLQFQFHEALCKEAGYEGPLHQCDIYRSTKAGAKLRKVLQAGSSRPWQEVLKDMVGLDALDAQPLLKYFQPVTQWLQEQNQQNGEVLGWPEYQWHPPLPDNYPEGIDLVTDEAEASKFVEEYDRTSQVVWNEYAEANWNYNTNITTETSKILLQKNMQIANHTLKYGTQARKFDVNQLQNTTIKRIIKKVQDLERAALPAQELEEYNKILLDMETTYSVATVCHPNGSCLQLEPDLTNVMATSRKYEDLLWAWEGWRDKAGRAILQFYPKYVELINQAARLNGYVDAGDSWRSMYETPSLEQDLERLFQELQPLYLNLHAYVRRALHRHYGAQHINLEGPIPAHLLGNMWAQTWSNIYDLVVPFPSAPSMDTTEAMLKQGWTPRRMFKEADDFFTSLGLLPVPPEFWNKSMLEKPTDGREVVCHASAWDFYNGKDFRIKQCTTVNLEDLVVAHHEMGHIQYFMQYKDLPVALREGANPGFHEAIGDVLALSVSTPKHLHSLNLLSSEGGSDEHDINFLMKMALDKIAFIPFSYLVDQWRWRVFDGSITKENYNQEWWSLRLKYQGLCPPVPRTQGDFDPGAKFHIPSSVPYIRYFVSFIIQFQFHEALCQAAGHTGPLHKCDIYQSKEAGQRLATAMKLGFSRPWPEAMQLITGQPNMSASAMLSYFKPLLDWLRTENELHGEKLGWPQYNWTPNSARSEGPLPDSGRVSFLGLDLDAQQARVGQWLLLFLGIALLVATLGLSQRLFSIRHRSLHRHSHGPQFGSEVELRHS

HLEVR [HLEVR]
IC50 [1]: 3.19 ± 0.23 mM | Digestion stability (%) [2]: 94.27 ± 2.64%

LTEVR [LTEVR]
IC50 [1]: 17.1 ± 1.37 mM | Digestion stability (%) [2]: 98.82 ± 3.92% | cell viability of VSMCs (VSMCs [3]; peptide 0.5 mg/mL): not significant | VSMC proliferation / viability (VSMCs [3]): effectively reduce VSMC viability | Ang II levels in VSMCs (Ang II): significantly reduced Ang II levels; also recorded: significantly inhibit intracellular Ang II levels | ACE expression (VSMCs [4]): modulated ACE expression | expression of PCNA, MMP2, Bcl2 and Bax (VSMCs [4]): significantly restored the expression of these proteins

LLDGR [LLDGR]
IC50 [1]: 2.81 ± 0.12 mM

HLVNK [HLVNK]
IC50 [1]: 0.06 ± 0.01 mM | Digestion stability (%) [2]: 95.78 ± 3.73% | VSMC proliferation / viability (VSMCs [3]): effectively reduce VSMC viability | Ang II levels in VSMCs (Ang II): significantly inhibit intracellular Ang II levels | Ang II levels in VSMCs (Ang II; listed as HLLVNK): significantly reduced Ang II levels | ACE expression (VSMCs [4]): modulated ACE expression | expression of PCNA, MMP2, Bcl2 and Bax (VSMCs [4]): significantly restored the expression of these proteins

lucifer yellow
apparent permeability coefficient (Papp) (Caco-2 cells): 2.87 ± 0.53 × 10^−7 cm^2/s

angiotensin II (DRVYIHPF; Angiotensin-2; UniProt P01019 25-32, looked up) [Ang II, angiotensin II, used to induce VSMC dysfunction]
downregulation of ACE2 expression (VSMCs [4]; VSMCs treated with Ang II): 15.60 ± 0.028% | upregulation of ACE expression (VSMCs [4]; VSMCs treated with Ang II): 136.50 ± 0.017% | upregulation of AT1R expression (VSMCs [4]; VSMCs treated with Ang II): 27.31 ± 0.020% | upregulation of BCL2 expression (VSMCs [4]; VSMCs treated with Ang II): 40.26 ± 0.051% | upregulation of ERK1/2/Total ERK (VSMCs [4]; VSMCs treated with Ang II): 128.17 ± 0.028% | upregulation of MMP2 expression (VSMCs [4]; VSMCs treated with Ang II): 14.97 ± 0.044% | upregulation of PCNA expression (VSMCs [4]; VSMCs treated with Ang II): 49.56 ± 0.01% | upregulation of pp38/Total p38 (VSMCs [4]; VSMCs treated with Ang II): 14.58 ± 0.041%

LEHGF [LEHGF]
IC50 [1]: 0.64 ± 0.02 mM | Digestion stability (%) [2]: 97.85 ± 6.31%
